The values that follow come from EP1206248B1, “CONTROLLED-RELEASE SEDATIVE-HYPNOTIC COMPOSITIONS AND METHODS RELATED THERETO” (Neurocrine Biosciences, Inc., priority 1999, dated 2001).

Series [1] can be described thus: Plasma half-life and pharmacokinetic parameters from plasma concentration-time profiles. The class given is in vivo. The settings on record: human. An excerpt: The mean plasma half-life of a sedative-hypnotic compound may be determined using well known techniques. Terminal half-life may be determined using standard pharmacokinetic calculations, such as those presented by Rolland and Tozer (Clinical Pharmacokinetics Concepts and Applications, 3rd. Ed., Chap. 3, 1995). In addition, software is commercially available which performs this calculation, such as the product sold under the tradename "WinNinlin™" (Prof. Ver.1.5). […]
To assess the plasma concentration time profiles, plasma concentration, Tmax and Tmin may be determined using well known techniques. […] Any suitable assay may be used to determine plasma levels, such as ELISA, RIA, or chromatography (e.g., gas-liquid chromatography or high pressure liquid chromatography) linked to any suitable detection system such as UV, fluorescence, mass spectrometry or an electrochemical system). […]
In this experiment, commercially available plasma profiling sofltware (GastroPlus™) (Simulations Plus Inc., CA) was used to simulate the effects of varying controlled release profiles and pharmacokinetic parameters based on in vivo plasma concentrations of NBI-34060 as measured in 12-healty male human subjects. […]

Series [2] can be described thus: log D partition coefficient.

Values after ≈ are worked out from the molar mass of the structure shown.

By solubility is commonly meant the dissolved amount per volume that the medium holds. A lower solubility goes with little dissolved substance. As usually defined, the half-life is the time in which the quantity being followed falls by half. A lower half-life goes with rapid decline. By Vd is commonly meant the apparent volume that relates the amount in the body to the concentration in plasma or blood. One may read the logD as the decadic logarithm of the distribution of all forms, ionised or not, between an organic phase and buffer at a given pH. For the molecule `CC(=O)N(C)c1cccc(-c2ccnc3c(C(=O)c4cccs4)cnn23)c1` [NBI-34060, N-methyl-N-(3-{3-[2-thienylcarbonyl]-pyrazolo-[1,5-a]-pyrimidin-7-yl}-phenyl)acetamide], the “resulting pH” value in “Solubility in water” (pH of the aqueous solution at approximately 20-30 µg/ml) was “approximately 8.0”. Also, the solubility in “Solubility in water” (water, pH 8, water) lay within 20 to 30 µg/mL (≈ 53.1 to 79.7 µM). The same molecule showed a half-life in series [1] (plasma half-life of NBI-34060) of 1.3 h. Moreover, the Vd in series [1] (male, one-compartment pharmacokinetic model, assuming 70 kg subject weight, read-out: volume of distribution (Vd)) was found to be 2.27 L/kg. In addition, the log distribution coefficient (logD) in series [2] turned out to be 1.73.
